Measured values taken from the supplement of paper PMC10307832.

How the values were obtained:
Test in all cases: relative viability (nuclei count vs DMSO), 5 days (fraction); higher = more cells survive
[1] = compound: CN(c1ncccc1CNc1nc(Nc2ccc3c(c2)CC(=O)N3)ncc1C(F)(F)F)S(C)(=O)=O
Procedure, shortened: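 After an overnight hold at 37 °C, lung cancer cell lines in 1536-well plates were pinned with five library-drug doses (not always all listed), each √10 from the next, on vehicle-anchored plates. The cells stayed 5 days without fresh medium, then a one-step fix, permeabilisation and Hoechst stain preceded 4× imaging and MetaXpress nuclear counts. A plate passed only with control CV under 25% and at least one doubling. Viability is the median, over plates, of treated-well nuclei relative to vehicle-well nuclei.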

[2] = compound: CN(c1ncccc1CNc1nc(Nc2ccc3c(c2)CC(=O)N3)ncc1C(F)(F)F)S(C)(=O)=O + CC(=O)Nc1cccc(-n2c(=O)n(C3CC3)c(=O)c3c(Nc4ccc(I)cc4F)n(C)c(=O)c(C)c32)c1 [Trametinib] (partner 0.02 µM)
Procedure, shortened: (§1)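 Each reported value is a median over duplicate plates. It expresses relative viability: treated-well nuclei count divided by vehicle-well nuclei count. Lung cancer cell lines in 1536-well plates were dosed by pin tool a day after seeding, alone with one drug or with a fixed anchor-drug dose plus five library-drug doses (not always all listed) in √10 steps, and nuclei were counted after 5 days.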

[3] = compound: CN(c1ncccc1CNc1nc(Nc2ccc3c(c2)CC(=O)N3)ncc1C(F)(F)F)S(C)(=O)=O + Cc1cc(Nc2cc(N3CCN(C)CC3)nc(Sc3ccc(NC(=O)C4CC4)cc3)n2)n[nH]1 [Tozasertib] (partner 0.1 µM)
Procedure, shortened: as §1

[4] = compound: CN(c1ncccc1CNc1nc(Nc2ccc3c(c2)CC(=O)N3)ncc1C(F)(F)F)S(C)(=O)=O + NC(=O)Nc1cc(-c2cccc(F)c2)sc1C(=O)N[C@H]1CCCNC1 [AZD7762] (partner 0.2 µM)
Procedure, shortened: as §1

Cell Line | relative viability ([1]; 0.01 µM) | relative viability ([1]; 0.03162 µM) | relative viability ([1]; 0.1 µM) | relative viability ([1]; 0.3162 µM) | relative viability ([1]; 1 µM) | relative viability ([2]; first compound 0.01 µM) | relative viability ([2]; first compound 0.03162 µM) | relative viability ([2]; first compound 0.1 µM) | relative viability ([2]; first compound 0.3162 µM) | relative viability ([2]; first compound 1 µM) | relative viability ([3]; first compound 0.01 µM) | relative viability ([3]; first compound 0.03162 µM) | relative viability ([3]; first compound 0.1 µM) | relative viability ([3]; first compound 0.3162 µM) | relative viability ([3]; first compound 1 µM) | relative viability ([4]; first compound 0.01 µM) | relative viability ([4]; first compound 0.03162 µM) | relative viability ([4]; first compound 0.1 µM) | relative viability ([4]; first compound 0.3162 µM) | relative viability ([4]; first compound 1 µM)
H3255 | 0.974 | 1.07 | 0.95 | 0.906 | 0.972 | 0.688 | 0.675 | 0.549 | 0.601 | 0.576 | 0.808 | 0.599 | 0.775 | 0.571 | 0.51 | 0.938 | 0.871 | 0.935 | 0.934 | 0.81
EPLC-272H | 0.948 | 0.955 | 1.01 | 1.18 | 0.875 | 0.288 | 0.294 | 0.247 | 0.319 | 0.277 | 0.346 | 0.234 | 0.314 | 0.278 | 0.182 | 0.273 | 0.174 | 0.211 | 0.331 | 0.291
PC-3 [JPC-3] | 0.998 | 1.05 | 0.981 | 1.03 | 0.943 | 0.669 | – | 0.712 | 0.696 | 0.554 | 0.903 | 0.907 | 0.913 | 0.847 | 0.832 | 0.851 | – | 0.848 | 0.948 | 1.03
NCI-H1793 | 0.877 | 1.07 | 0.928 | 0.857 | 0.786 | 0.473 | 0.4 | 0.419 | 0.519 | 0.567 | 0.32 | 0.379 | 0.332 | 0.222 | 0.23 | 0.407 | 0.541 | 0.543 | 0.53 | 0.452
EKVX | 0.971 | 1.08 | 0.945 | 0.883 | 0.88 | 0.355 | 0.374 | 0.244 | 0.319 | 0.262 | 0.456 | 0.428 | 0.454 | 0.339 | 0.316 | 0.723 | 0.676 | 0.747 | 0.838 | 0.748
ChaGo-K-1 | 0.963 | 1.08 | 0.948 | 0.96 | 1.02 | 0.959 | 0.923 | 0.999 | 0.912 | 0.849 | 0.233 | 0.231 | 0.223 | 0.236 | 0.205 | 0.932 | 0.856 | 0.873 | 0.917 | 0.853
NCI-H23 | 1.02 | 0.963 | 1.06 | 1.06 | 0.973 | 0.392 | 0.319 | 0.388 | 0.466 | 0.404 | 0.494 | 0.356 | 0.407 | 0.295 | 0.351 | 0.245 | 0.276 | 0.243 | 0.289 | 0.382
EMC-BAC-2 | 1.02 | 0.921 | 0.938 | 0.948 | 0.948 | 0.872 | 0.887 | 0.855 | 0.841 | 0.722 | 0.302 | 0.283 | 0.287 | 0.255 | 0.246 | 1.17 | 1.08 | 1.1 | 1.11 | 1.14
LOU-NH91 | 1.04 | 0.976 | 0.925 | 1.02 | 1.02 | 0.802 | 0.793 | 0.75 | 0.819 | 0.787 | 0.641 | 0.674 | 0.647 | 0.645 | 0.576 | 0.793 | 0.754 | 0.735 | 0.746 | 0.79
LU99A | 0.964 | 1.06 | 1.04 | 1.17 | 1.01 | 0.559 | 0.663 | 0.564 | 0.65 | 0.574 | 0.319 | 0.301 | 0.297 | 0.258 | 0.246 | 0.377 | 0.507 | 0.509 | 0.572 | 0.476
NCI-H1395 | 0.94 | 0.977 | 0.812 | 1.01 | 0.988 | 0.979 | 1.07 | 1.06 | 1.14 | 1.02 | 0.724 | 0.806 | 0.784 | 0.856 | 0.782 | 0.41 | 0.368 | 0.421 | 0.398 | 0.424
NCI-H460 | 1 | 1.1 | 0.979 | 1 | 1.02 | 0.108 | 0.139 | 0.2 | 0.185 | 0.129 | 0.499 | 0.464 | 0.491 | 0.137 | 0.396 | 0.714 | 0.824 | 0.643 | 0.661 | 0.684
201T | 1.02 | 0.951 | 0.911 | 0.949 | 0.961 | 0.709 | 0.712 | 0.664 | 0.669 | 0.67 | 0.921 | 1 | 0.912 | 0.845 | 0.894 | 0.617 | 0.582 | 0.688 | 0.654 | 0.604
NCI-H1944 | 0.993 | 0.983 | 1 | 1.02 | 1.06 | 0.412 | 0.45 | 0.39 | 0.449 | 0.412 | 0.238 | 0.279 | 0.247 | 0.261 | 0.243 | 0.723 | 0.571 | 0.602 | 0.672 | 0.658
NCI-H2405 | 1.06 | 0.935 | 0.931 | 0.8 | 0.82 | 0.633 | 0.676 | 0.596 | 0.596 | 0.584 | 0.696 | 0.719 | 0.715 | 0.534 | 0.499 | 0.702 | 0.69 | 0.749 | 0.573 | 0.626
NCI-H1703 | 0.955 | 0.931 | 0.861 | 1.08 | 0.905 | – | – | – | – | – | – | – | – | – | – | 0.131 | 0.18 | 0.124 | 0.127 | 0.118
